Values of other authors, collected in article PMC2803438 (Current Chemical Genomics, 2008).
pIC50, pKd: −log10 of the molar value.

What was measured:
Hsc70 [1] = conditions: read-out: IC50 for binding to Hsc70
Hsc70 [2] = conditions: read-out: Kd, binding to Hsc70; moderate affinity

Row | Molecule | pIC50 (Hsc70 [1]) | pKd (Hsc70 [2])
1 | NIVRKKK | 5.55 | 
2 | N=C(N)NCCCCCCC(=O)NC(O)C(=O)NCCCCNCCCN (centres unmarked) [15-deoxyspergualin] |  | 6.30
